For the experiment, the target named is T1, purified human Factor XIa (Homo sapiens, UniProt P03951).
T1 construct: purchased Haematologic Technologies
Put plainly: Factor XIa enzyme inhibition assay (chromogenic substrate S-2366), Ki. In kind it is biochemical. The note with it: substrate S-2366, pH 7.4. As to the method: The effectiveness of compounds of the present invention as inhibitors of the coagulation Factors XIa, VIIa, IXa, Xa, XIIa, plasma kallikrein, thrombin, chemytrypsin or trypsin can be determined using a relevant purified serine protease, respectively, and an appropriate synthetic substrate. The rate of hydrolysis of the chromogenic or fluorogenic substrate by the relevant serine protease was measured both in the absence and presence of compounds of the present invention. […] A decrease in the rate of absorbance or fluorescence change in the presence of inhibitor is indicative of enzyme inhibition. Such methods are known to one skilled in the art. The results of this assay are expressed as the inhibitory constant, Ki.
Factor XIa determinations were made in 50 mM HEPES buffer at pH 7.4 containing 145 mM NaCl, 5 mM KCl, and 0.1% PEG 8000 (polyethylene glycol; JT Baker or Fisher Scientific). Determinations were made using purified human Factor XIa at a final concentration of […] (Haematologic Technologies) and the synthetic substrate S-2366 (pyroGlu-Pro-Arg-pNA; CHROMOGENIX® or AnaSpec) at a concentration of 0.0002-0.001 M.
Values of Ki were determined by allowing the protease to react with the substrate in the presence of the inhibitor. Reactions were allowed to go for periods of 20-180 minutes (depending on the protease) and the velocities (rate of absorbance or fluorescence change versus time) were measured. The following relationships were used to calculate Ki values: (Vmax*S)/(Km+S) (vo−vs)/vs=I/(Ki*(1+S/Km)) for a competitive inhibitor with one binding site; or vs/vo=A+(B−A)/(1+(IC50/(I)^n)); and Ki=IC50/(1+S/Km) for a competitive inhibitor where: […]

T1 sequence (P03951 388-625 limits assumed): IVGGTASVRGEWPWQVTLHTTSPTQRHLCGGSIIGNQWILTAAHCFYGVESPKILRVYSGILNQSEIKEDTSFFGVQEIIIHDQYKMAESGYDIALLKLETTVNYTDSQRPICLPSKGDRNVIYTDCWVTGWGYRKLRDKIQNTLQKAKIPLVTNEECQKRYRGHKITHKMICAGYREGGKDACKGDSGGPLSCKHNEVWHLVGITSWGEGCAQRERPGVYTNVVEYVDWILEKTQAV
T1 sequence (P03951 19-387 partner limits assumed): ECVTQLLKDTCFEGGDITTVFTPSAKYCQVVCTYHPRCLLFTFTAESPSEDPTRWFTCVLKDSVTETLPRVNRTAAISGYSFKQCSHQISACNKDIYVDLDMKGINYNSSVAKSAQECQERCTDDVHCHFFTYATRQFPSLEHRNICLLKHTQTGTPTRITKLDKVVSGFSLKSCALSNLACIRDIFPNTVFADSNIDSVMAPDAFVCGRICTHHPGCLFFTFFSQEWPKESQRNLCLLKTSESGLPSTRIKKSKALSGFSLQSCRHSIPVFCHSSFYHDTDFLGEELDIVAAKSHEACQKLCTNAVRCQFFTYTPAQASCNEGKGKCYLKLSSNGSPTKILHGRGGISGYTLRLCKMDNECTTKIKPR

For `O=C([C@H](Cc1ccccc1)n1cnc(-c2cc(Cl)ccc2-n2cc(Cl)nn2)cc1=O)N1CCC(c2ccc(Cl)cc2)CC1` [Example 52, (S)-6-(5-chloro-2-(4-chloro-1H-1,2,3-triazol-1-yl)phenyl)-3-(1-(4-(4-chlorophenyl)piperidin-1-yl)-1-oxo-3-phenylpropan-2-yl)pyrimidin-4(3H)-one], the inhibitory constant (Ki) is 4440 nM.
`O=C(NCCO)[C@H](Cc1ccccc1)n1cnc(-c2cc(Cl)ccc2-n2cc(Cl)nn2)cc1=O` [Example 86, (S)-2-(4-(5-chloro-2-(4-chloro-1H-1,2,3-triazol-1-yl)phenyl)-6-oxopyrimidin-1(6H)-yl)-N-(2-hydroxyethyl)-3-phenylpropanamide] showed a Ki of 5500 nM.
The value for `CN1CCC2(CCCN(C(=O)[C@H](Cc3ccccc3)n3cnc(-c4cc(Cl)ccc4-n4cc(Cl)nn4)cc3=O)C2)C1=O` (stereo partly drawn) [Example 66, 7-((S)-2-(4-(5-chloro-2-(4-chloro-1H-1,2,3-triazol-1-yl)phenyl)-6-oxopyrimidin-1(6H)-yl)-3-phenylpropanoyl)-2-methyl-2,7-diazaspiro[4.5]decan-1-one] was 12200 nM; that for `Cn1cnc2cc(NC(=O)[C@H](Cc3ccccc3)n3cnc(-c4cc(Cl)ccc4-n4cc(Cl)nn4)cc3=O)cnc21` [Example 27, (S)-2-(4-(5-chloro-2-(4-chloro-1H-1,2,3-triazol-1-yl)phenyl)-6-oxopyrimidin-1(6H)-yl)-N-(3-methyl-3H-imidazo[4,5-b]pyridin-6-yl)-3-phenylpropanamide] was 420 nM; that for `CCCNC(=O)[C@H](Cc1ccccc1)n1cnc(-c2cc(Cl)ccc2-n2cc(Cl)nn2)cc1=O` [Example 89, (S)-2-(4-(5-chloro-2-(4-chloro-1H-1,2,3-triazol-1-yl)phenyl)-6-oxopyrimidin-1(6H)-yl)-3-phenyl-N-propylpropanamide] was 1940 nM.
The compound `O=C(Nc1nnc(C2CCC2)[nH]1)[C@H](Cc1ccccc1)n1cnc(-c2cc(Cl)ccc2-n2cc(Cl)nn2)cc1=O` [Example 110, (S)-2-(4-(5-chloro-2-(4-chloro-1H-1,2,3-triazol-1-yl)phenyl)-6-oxopyrimidin-1(6H)-yl)-N-(5-cyclobutyl-4H-1,2,4-triazol-3-yl)-3-phenylpropanamide] showed a Ki of 257 nM.
With `O=C(Nc1ccc(Cc2ccncc2)cc1)[C@H](Cc1ccccc1)n1cnc(-c2cc(Cl)ccc2-n2cc(Cl)nn2)cc1=O` [Example 24, (S)-2-(4-(5-chloro-2-(4-chloro-1H-1,2,3-triazol-1-yl)phenyl)-6-oxopyrimidin-1(6H)-yl)-3-phenyl-N-(4-(pyridin-4-ylmethyl)phenyl)propanamide] the figure was 112 nM; with `O=C(Nc1noc2cc(Br)ccc12)[C@H](Cc1ccccc1)n1cnc(-c2cc(Cl)ccc2-n2cc(Cl)nn2)cc1=O` [Example 114, (S)-N-(6-bromobenzo[d]isoxazol-3-yl)-2-(4-(5-chloro-2-(4-chloro-1H-1,2,3-triazol-1-yl)phenyl)-6-oxopyrimidin-1(6H)-yl)-3-phenylpropanamide], 336 nM; with `O=C(Nc1ccc2[nH]cnc2c1)[C@H](Cc1ccccc1)n1cnc(-c2cc(Cl)ccc2-n2cc(Cl)nn2)cc1=O` [Example 46, (S)-N-(1H-benzo[d]imidazol-5-yl)-2-(4-(5-chloro-2-(4-chloro-1H-1,2,3-triazol-1-yl)phenyl)-6-oxopyrimidin-1(6H)-yl)-3-phenylpropanamide], 8.3 nM.
The value for `O=C(Nc1ccc(N2CCOCC2=O)cc1)[C@H](Cc1ccccc1)n1cnc(-c2cc(Cl)ccc2-n2cc(Cl)nn2)cc1=O` [Example 37, (S)-2-(4-(5-chloro-2-(4-chloro-1H-1,2,3-triazol-1-yl)phenyl)-6-oxopyrimidin-1(6H)-yl)-N-(4-(3-oxomorpholino)phenyl)-3-phenylpropanamide] was 155 nM; that for `O=C1CCN(C(=O)[C@H](Cc2ccccc2)n2cnc(-c3cc(Cl)ccc3-n3cc(Cl)nn3)cc2=O)CCN1` [Example 55, (S)-1-(2-(4-(5-chloro-2-(4-chloro-1H-1,2,3-triazol-1-yl)phenyl)-6-oxopyrimidin-1(6H)-yl)-3-phenylpropanoyl)-1,4-diazepan-5-one] was 4940 nM; that for `Cn1ccnc1N1CCN(C(=O)[C@H](Cc2ccccc2)n2cnc(-c3cc(Cl)ccc3-n3cc(Cl)nn3)cc2=O)CC1` [Example 83, (S)-6-(5-chloro-2-(4-chloro-1H-1,2,3-triazol-1-yl)phenyl)-3-(1-(4-(1-methyl-1H-imidazol-2-yl)piperazin-1-yl)-1-oxo-3-phenylpropan-2-yl)pyrimidin-4(3H)-one] was 3110 nM.
Take `NS(=O)(=O)c1ccc(CNC(=O)[C@H](Cc2ccccc2)n2cnc(-c3cc(Cl)ccc3-n3cc(Cl)nn3)cc2=O)cc1` [Example 64, (S)-2-(4-(5-chloro-2-(4-chloro-1H-1,2,3-triazol-1-yl)phenyl)-6-oxopyrimidin-1(6H)-yl)-3-phenyl-N-(4-sulfamoylbenzyl)propanamide]: affinity was put at a Ki of 1270 nM.
Consider `O=C([C@H](Cc1ccccc1)n1cnc(-c2cc(Cl)ccc2-n2cc(Cl)nn2)cc1=O)N1CCC(CO)CC1` [Example 56, (S)-6-(5-chloro-2-(4-chloro-1H-1,2,3-triazol-1-yl)phenyl)-3-(1-(4-(hydroxymethyl)piperidin-1-yl)-1-oxo-3-phenylpropan-2-yl)pyrimidin-4(3H)-one], for which the affinity, expressed as Ki, was 7370 nM.
`O=C(NCc1ccccn1)[C@H](Cc1ccccc1)n1cnc(-c2cc(Cl)ccc2-n2cc(Cl)nn2)cc1=O` [Example 70, (S)-2-(4-(5-chloro-2-(4-chloro-1H-1,2,3-triazol-1-yl)phenyl)-6-oxopyrimidin-1(6H)-yl)-3-phenyl-N-(pyridin-2-ylmethyl)propanamide]: the Ki amounted to 931 nM.
In turn, `CCOC(=O)c1ccc(NC(=O)[C@H](Cc2ccccc2)n2cnc(-c3cc(Cl)ccc3-n3cc(Cl)nn3)cc2=O)cc1` [Example 42, ethyl (S)-4-(2-(4-(5-chloro-2-(4-chloro-1H-1,2,3-triazol-1-yl)phenyl)-6-oxopyrimidin-1(6H)-yl)-3-phenylpropanamido)benzoate] gave a Ki of 196 nM.
Turning to `COCCNC(=O)[C@H](Cc1ccccc1)n1cnc(-c2cc(Cl)ccc2-n2cc(Cl)nn2)cc1=O` [Example 85, (S)-2-(4-(5-chloro-2-(4-chloro-1H-1,2,3-triazol-1-yl)phenyl)-6-oxopyrimidin-1(6H)-yl)-N-(2-methoxyethyl)-3-phenylpropanamide], the Ki came to 1730 nM.
For `O=C(NC1CCCCC1)[C@H](Cc1ccccc1)n1cnc(-c2cc(Cl)ccc2-n2cc(Cl)nn2)cc1=O` [Example 104, (S)-2-(4-(5-chloro-2-(4-chloro-1H-1,2,3-triazol-1-yl)phenyl)-6-oxopyrimidin-1(6H)-yl)-N-cyclohexyl-3-phenylpropanamide], affinity was put at a Ki of 231 nM.
Regarding `O=C(Nc1ccnc2[nH]ncc12)[C@H](Cc1ccccc1)n1cnc(-c2cc(Cl)ccc2-n2cc(Cl)nn2)cc1=O` [Example 126, (S)-2-(4-(5-chloro-2-(4-chloro-1H-1,2,3-triazol-1-yl)phenyl)-6-oxopyrimidin-1(6H)-yl)-3-phenyl-N-(1H-pyrazolo[3,4-b]pyridin-4-yl)propanamide], the Ki came out at 213 nM.

One may read the Ki as the equilibrium dissociation constant of an inhibitor or competing ligand from its target. Lower therefore signals tighter binding.

(Values after patent publication US10336730B2, “Substituted glycine derived FXIA inhibitors” (BRISTOL-MYERS SQUIBB COMPANY, priority 2015, dated 2019).)
